Results published in paper PMC4821771 (The Journal of steroid biochemistry and molecular biology, 2016).
“Also recorded” adds a separate entry of the source. One block for each compound: values may come before it.

Experiments:
[1] = test system: CYP3A4; details: cited from earlier work
[2] = biological target: recombinant human CYP3A4 (Homo sapiens, UniProt P08684); test: Metabolism by CYP3A4 supersomes; assay type: in vitro ADME; details: for Km / kcat: initial rates of formation of all products, substrate in 0.45% HP-β-CD, 60 nM CYP3A4, mean ± standard error of the curve fit; for proportion of 20,25(OH)2D3:20,24R(OH)2D3:20,24S(OH)2D3: products of 20(OH)D3, CYP3A4 (Fig. S3A)
[3] = test system: human liver microsomes; test: Metabolism of 20; assay type: in vitro ADME; details: for proportion of 20,25(OH)2D3:20,24R(OH)2D3:20,24S(OH)2D3 at the end of the time course: products of 20(OH)D3, human liver microsomes (Fig. S5A)
[4] = high doses, up to 60 μg/kg in rodents; cited from earlier work
[5] = test system: SKMEL-188 melanoma cells; details: cited from earlier work
[6] = test system: human liver microsomes; test: Incubation of human liver microsomes with CYP3A4 inhibitors; details: for decrease of total products: 50 μM 20(OH)D3, 30 min
[7] = test system: human liver microsomes
[8] = total product formation from 20(OH)D3, microsomes 1.5 mg/mL

recombinant human CYP3A4, sequence (P08684 2-503 limits assumed): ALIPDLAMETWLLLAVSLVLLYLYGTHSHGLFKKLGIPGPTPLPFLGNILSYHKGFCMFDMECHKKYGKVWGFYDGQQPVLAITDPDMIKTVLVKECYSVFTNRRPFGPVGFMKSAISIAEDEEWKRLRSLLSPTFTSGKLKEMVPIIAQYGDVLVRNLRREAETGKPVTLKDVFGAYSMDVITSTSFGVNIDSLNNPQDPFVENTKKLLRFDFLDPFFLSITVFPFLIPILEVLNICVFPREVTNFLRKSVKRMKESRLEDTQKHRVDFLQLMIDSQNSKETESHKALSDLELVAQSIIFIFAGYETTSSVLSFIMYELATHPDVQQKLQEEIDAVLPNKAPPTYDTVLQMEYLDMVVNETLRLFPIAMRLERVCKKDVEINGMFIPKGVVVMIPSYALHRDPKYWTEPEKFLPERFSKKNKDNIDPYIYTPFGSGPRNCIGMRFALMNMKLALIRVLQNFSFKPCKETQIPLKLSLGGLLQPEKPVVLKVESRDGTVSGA

SMILES: C=C1/C(=C\C=C2/CCC[C@]3(C)[C@@H]([C@H](C)CCCC(C)(C)O)CC[C@@H]23)C[C@@H](O)C[C@@H]1O [1,25(OH)2D3, 1,25-dihydroxyvitamin D3]
- efficiency of metabolism by CYP3A4 [1]: 0.70 min^−1μM^−1

SMILES: C=C1CC[C@H](O)C/C1=C/C=C1\CCC[C@@]2(C)[C@H]1CC[C@@H]2[C@@](C)(O)CC[C@@H](O)C(C)C [20,24R(OH)2D3, 20,24R-dihydroxyvitamin D3]
- Km [2]: 332 ± 194 µM
- kcat [2]: 1.08 ± 0.475 s⁻¹
- proportion of 20,25(OH)2D3:20,24R(OH)2D3:20,24S(OH)2D3 [2]: 0.41
- proportion of 20,25(OH)2D3:20,24R(OH)2D3:20,24S(OH)2D3 at the end of the time course [3]: 0.47
- inhibition of colony formation compared with 20(OH)D3 [5]: more potent; also recorded: more strongly than the parent 20(OH)D3

SMILES: C=C1CC[C@H](O)C/C1=C/C=C1\CCC[C@@]2(C)[C@H]1CC[C@@H]2[C@@](C)(O)CC[C@H](O)C(C)C [20,24S(OH)2D3, 20,24S-dihydroxyvitamin D3]
- Km [2]: 86.9 ± 44.3 µM
- kcat [2]: 0.275 ± 0.0717 s⁻¹
- proportion of 20,25(OH)2D3:20,24R(OH)2D3:20,24S(OH)2D3 [2]: 0.14
- proportion of 20,25(OH)2D3:20,24R(OH)2D3:20,24S(OH)2D3 at the end of the time course [3]: 0.16

SMILES: C=C1CC[C@H](O)C/C1=C/C=C1\CCC[C@]2(C)[C@@H]([C@H](C)CCCC(C)(C)O)CC[C@@H]12 [25(OH)D3, 25-hydroxyvitamin D3]
- catalytic efficiency for metabolism by CYP3A4 [1]: 1.32 min⁻¹ µM⁻¹

The next lines start with results.

- more products with substrate in HP-β-CD than when added from acetonitrile ([2]; CYP3A4 supersomes, not shown): 25 fold
- metabolised faster than 25(OH)D3 (times) ([2]; formation of total products, 50 μM substrate (Fig. S3B)): approximately 30 times
- Km [2]: 32.6 ± 2.8 µM
- kcat [2]: 0.295 ± 0.0083 s⁻¹
- substrate consumed by the end of the incubation ([2]; time course of 20(OH)D3 metabolism by CYP3A4 (Fig. S3A)): 18%
- Km [3, 8]: 165 ± 56 µM
SMILES: C=C1CC[C@H](O)C/C1=C/C=C1\CCC[C@@]2(C)[C@H]1CC[C@@H]2[C@@](C)(O)CCCC(C)C [20(OH)D3, 20S-Hydroxyvitamin D3]
- Vmax [3, 8]: 292.6 ± 60.3 min⁻¹
- hypercalcaemia [4]: does not induce hypercalcaemia

- further metabolism by CYP3A4 ([2]; 25 μM substrate in 0.45% HP-β-CD, 60 nM CYP3A4, one hour): essentially no products formed
- proportion of 20,25(OH)2D3:20,24R(OH)2D3:20,24S(OH)2D3 [2]: 1
- proportion of 20,25(OH)2D3:20,24R(OH)2D3:20,24S(OH)2D3 at the end of the time course [3]: 1
SMILES: C=C1CC[C@H](O)C/C1=C/C=C1\CCC[C@@]2(C)[C@H]1CC[C@@H]2[C@@](C)(O)CCCC(C)(C)O [20,25(OH)2D3, 20,25-dihydroxyvitamin D3]
- Vmax ([3]; formation of the named product from 20(OH)D3, as given in the text): 134.2 ± 36.0 pmol/min/mg protein
- inhibition of colony formation compared with 20(OH)D3 [5]: more potent; also recorded: more strongly than the parent 20(OH)D3

- decrease of total products ([6]; 1 μM azamulin): 60.0%
- decrease of total products ([6]; 10 μM azamulin): 75.9%
- inhibition of production of 20,24R(OH)2D3, 20,24S(OH)2D3 and 20,25(OH)2D3 ([6]; human liver microsomes, abstract statement): almost completely inhibited
SMILES: CC[C@]1(C)C[C@@H](OC(=O)CSc2nnc(N)[nH]2)[C@]2(C)[C@H](C)CC[C@]3(CCC(=O)[C@H]32)[C@@H](C)[C@@H]1O [azamulin]

- effect on peaks corresponding to 20,25(OH)2D3, 20,24R(OH)2D3/20,26(OH)2D3, 20,24S(OH)2D3 and H6 [7]: markedly decreased
SMILES: NNC(=O)c1ccncc1 [isoniazid]
